In PubChem BioAssay (NCI) one finds TGI and GI50 data, which are given here for twelve molecules.

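96-well plates; 48 h exposure; 5 concentrations. Endpoints by linear interpolation between flanking doses. Not reached: highest tested concentration assigned. At the GI50, growth is halved. TGI: concentration producing complete growth inhibition.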 Where only a bound is given, the exact number is not on record here.

Some test systems named below: UACC-62 melanoma; UO-31 renal; SK-MEL-28 melanoma; HCT-116 colon; SF-539 CNS; HCT-15 colon; HOP-92 NSCLC; SK-MEL-2 melanoma; NCI-H226 lung; A498 renal.
Holding throughout (experiment): NCI-60 cell line screen, 48 h

For `Cc1ccc(NC(=O)C(=O)C2C(=O)C3=C(CC2(C)C)NC2C=CC=CC2S3)c(C)c1` (stereo not drawn), the TGI in the experiment on UACC-62 melanoma, in the experiment with UO-31 renal, with SK-MEL-28 melanoma, with HCT-116 colon, in the experiment with SF-539 CNS and in the experiment with HCT-15 colon was over 100 µM each time. Further, the TGI in the experiment with HOP-92 NSCLC, in the experiment on SK-MEL-2 melanoma and in the experiment on NCI-H226 lung was over 100 µM each time.
As for `CCOc1cccc2cccnc12`, the TGI in the experiment on UACC-62 melanoma, in the experiment with UO-31 renal, in the experiment with SK-MEL-28 melanoma, with HCT-116 colon, in the experiment on SF-539 CNS and in the experiment on HOP-92 NSCLC was over 100 µM in each case. In the experiment with NCI-H226 lung, this molecule gave a TGI of over 100 µM.
In the case of `O=C(CCCCCn1c2ccccc2c2c3c(c4c5ccccc5[nH]c4c21)C(=O)N(O)C3=O)N1CCOCC1`, the GI50 in the experiment with UACC-62 melanoma is 2.05 µM; with UO-31 renal it was 1.6 µM; in the experiment on SK-MEL-28 melanoma, 2.32 µM; in the experiment with HCT-15 colon, 2.67 µM; in the experiment on SK-MEL-2 melanoma it was 2.4 µM; in the experiment with A498 renal it was 1.29 µM. For the same molecule, the GI50 in the experiment on NCI-H226 lung is 2.58 µM. Moreover, the TGI was 5.4 µM with UACC-62 melanoma; 4.28 µM with UO-31 renal; 5.4 µM with SK-MEL-28 melanoma; 8.32 µM in the experiment with HCT-15 colon; 5.47 µM with SK-MEL-2 melanoma; 2.7 µM in the experiment with A498 renal. The TGI with NCI-H226 lung worked out at 6.51 µM.
Turning to `C[N+](C)(C)CC(=O)NC(=O)N/N=C\C(CC#N)CN(Cc1ccccc1)Cc1ccccc1` (stereo not drawn), the TGI in the experiment on UACC-62 melanoma, in the experiment with UO-31 renal, with SK-MEL-28 melanoma, in the experiment on HCT-116 colon, with SF-539 CNS and in the experiment on HCT-15 colon was over 100 µM each time. Moreover, the TGI in the experiment on SK-MEL-2 melanoma, with A498 renal and in the experiment with NCI-H226 lung was over 100 µM each time.
Turning to `c1cc(C2O[C@H]3CCCN3[C@@H]2c2ccncc2)ccn1` (stereo partly drawn), the TGI in the experiment with UACC-62 melanoma, with UO-31 renal, in the experiment on SK-MEL-28 melanoma, in the experiment with HCT-116 colon, in the experiment with SF-539 CNS and with HCT-15 colon was over 100 µM in each case. Also, the TGI in the experiment on SK-MEL-2 melanoma, in the experiment with A498 renal and in the experiment on NCI-H226 lung was over 100 µM throughout.
Turning to `Cc1cc(C)c(-c2noc(-c3ccc(Cl)cc3)c2C2=NCCN2)c(C)c1`, the TGI in the experiment with UACC-62 melanoma is 33.8 µM; with UO-31 renal it was 46.9 µM; in the experiment with SK-MEL-28 melanoma, 36.9 µM; with HCT-116 colon, 64.5 µM; in the experiment with SF-539 CNS it was 32 µM; with HCT-15 colon, 57.4 µM. Besides, the TGI in the experiment on SK-MEL-2 melanoma is 43.8 µM; in the experiment on NCI-H226 lung it was 68.3 µM.
Regarding `O=C(O)c1cc(/C=C/c2ccc(O)c(O)c2)ccc1O`, the TGI in the experiment with UACC-62 melanoma, in the experiment with UO-31 renal, in the experiment on SK-MEL-28 melanoma, in the experiment with HCT-116 colon, in the experiment on SF-539 CNS and in the experiment with HCT-15 colon was over 100 µM throughout. Also, the TGI in the experiment with HOP-92 NSCLC, in the experiment on SK-MEL-2 melanoma and in the experiment on NCI-H226 lung was over 100 µM each time.
Turning to `N#CC1=C(N)NC(=S)NC1c1ccc(-c2ccc(-c3nc4ccccc4s3)cc2)o1` (stereo not drawn), the GI50 with UACC-62 melanoma was 16.1 µM; with UO-31 renal, over 50 µM; in the experiment on HCT-116 colon it was 13 µM; in the experiment on SF-539 CNS, 15.2 µM; in the experiment on HCT-15 colon, 17.5 µM; with HOP-92 NSCLC it was over 50 µM. In addition, the GI50 with SK-MEL-2 melanoma is 41 µM. In addition, the TGI in the experiment on UACC-62 melanoma was over 50 µM; with UO-31 renal, over 50 µM; in the experiment on HCT-116 colon, 31.8 µM; in the experiment with SF-539 CNS it was 31.7 µM; with HCT-15 colon it was over 50 µM; in the experiment with HOP-92 NSCLC, over 50 µM. In the experiment with SK-MEL-2 melanoma, the TGI is over 50 µM.
Take `O=C1C=Cc2cc3ccccc3c3cccc1c23`: the GI50 in the experiment with UACC-62 melanoma was 1.81 µM; with UO-31 renal, 7.31 µM; in the experiment on SK-MEL-28 melanoma, 10.5 µM; in the experiment on HCT-116 colon, 3.16 µM; in the experiment with HCT-15 colon it was 3.21 µM; in the experiment with HOP-92 NSCLC, 1.11 µM. Further, the GI50 was 27.6 µM in the experiment on SK-MEL-2 melanoma and 2.61 µM with NCI-H226 lung. Besides, the TGI is 6.43 µM in the experiment on UACC-62 melanoma; over 100 µM with UO-31 renal; over 100 µM in the experiment with SK-MEL-28 melanoma; over 100 µM in the experiment with HCT-116 colon; 18.6 µM in the experiment on HCT-15 colon; 6.29 µM in the experiment on HOP-92 NSCLC. Besides, the TGI with SK-MEL-2 melanoma is over 100 µM; in the experiment with NCI-H226 lung, 10 µM.
For the molecule `CC(C)CCC[C@@H](C)C1CCC2[C@@H]3CC=C4C[C@@H](OC(=O)CCC(=O)NCC[N+](C)(C)CCCS(=O)(=O)[O-])CC[C@]4(C)C3CC[C@@]21C` (stereo partly drawn), the TGI in the experiment with UACC-62 melanoma was 50.3 µM; with UO-31 renal, over 100 µM; with SK-MEL-28 melanoma it was 32.9 µM; in the experiment with HCT-116 colon it was 63.1 µM; in the experiment with SF-539 CNS, 31.4 µM; in the experiment with HCT-15 colon, 29.5 µM. Besides, the TGI came to 34.9 µM in the experiment on SK-MEL-2 melanoma and 50.5 µM with NCI-H226 lung.
With `COc1ccc(-c2ccc(/C=N/n3cnn(CN4CCN(C)CC4)c3=S)o2)c([N+](=O)[O-])c1`, the GI50 in the experiment on UACC-62 melanoma is 16.1 µM; with UO-31 renal, 83.9 µM; in the experiment on SK-MEL-28 melanoma it was 44.5 µM; with SF-539 CNS, 17 µM; with HCT-15 colon, 16.7 µM; in the experiment with HOP-92 NSCLC it was 17.1 µM. In addition, the GI50 in the experiment on SK-MEL-2 melanoma was over 100 µM. Besides, the TGI with UACC-62 melanoma was 40 µM; in the experiment on UO-31 renal, over 100 µM; in the experiment on SK-MEL-28 melanoma, over 100 µM; with SF-539 CNS it was 34.1 µM; in the experiment with HCT-15 colon, 37.5 µM; in the experiment on HOP-92 NSCLC it was 58.4 µM. Besides, the TGI in the experiment on SK-MEL-2 melanoma is over 100 µM.
Regarding `CC(=N\O)/C(C)=N/O.CC(=N\O)/C(C)=N/O.[Pd]`, the GI50 is 2.11 µM in the experiment with UACC-62 melanoma; 3.87 µM in the experiment with SK-MEL-28 melanoma; 2.38 µM with HCT-116 colon; 2.77 µM in the experiment with SF-539 CNS; 2.44 µM in the experiment on HCT-15 colon; 3.31 µM in the experiment with SK-MEL-2 melanoma. In addition, the GI50 is 4.9 µM in the experiment with A498 renal and over 10 µM in the experiment on NCI-H226 lung. Besides, the TGI in the experiment on UACC-62 melanoma is 5.75 µM; in the experiment with SK-MEL-28 melanoma, 9.48 µM; in the experiment with HCT-116 colon, 4.79 µM; with SF-539 CNS it was 6.1 µM; in the experiment on HCT-15 colon, 7.08 µM; in the experiment on SK-MEL-2 melanoma it was 8.67 µM. The TGI in the experiment with A498 renal and in the experiment with NCI-H226 lung was over 10 µM in each case.
